In US20210309631A1, “SALT OF CYCLOHEXANE DERIVATIVE” (priority 2018, published 2021):
Like-named read-outs stand apart in the source and are kept apart here.

Legend:
[1] = Crystal form stability on heating (XRPD before and after heating); assay type: physicochemical
[2] = solubility in water; assay type: physicochemical
[3] = Hygroscopicity (DVS) experiment, 25° C./80% relative humidity; assay type: physicochemical; conditions: for Hygroscopicity / Vapor sorption: 25° C./80% relative humidity; for hygroscopicity (summary in words): within one week
Protocol: Dynamic vapor sorption curves were collected on a DVS Intrinsic by SMS (Surface Measurement Systems).
20 mg sample of the crystal forms of the Examples and Comparative Examples are placed in the environment of 25° C./80% relative humidity for a dynamic vapor sorption (DVS) test, and the test results […] are shown in Table 5.

[4] = Plasma pharmacokinetics in SD rats after single intragastric administration (Example 7); assay type: in vivo; conditions: intragastric 1 mg/kg; for MRT inf: read-out: MRT0-∞
Protocol: The in vivo absorption process and characteristics of the free base and four salts thereof (sulfate, hydrochloride salt, phosphate, maleate) of compound (I) in rats were studied. The pharmacokinetics of a single intragastric administration of 1 mg/kg of a compound of Formula I and four salts thereof (calculated by free base concentration in salt form) were studied in SD rats.
SD rats were given a single intragastric administration of 1 mg/kg free base of Example 1 and four salts thereof (including hydrochloride salt from Example 2, sulfate from Example 3, phosphate from Example 4 and maleate from Example 5). There were 4 male rats in each group. The concentration of the compound of Formula I in plasma was determined, and the pharmacokinetic parameters were calculated according to the concentration-time curve.

[5] = In vivo individual difference analysis: individual plasma concentration versus time in rats (Example 8); parameters: species or system SD rats; conditions: intragastric 1 mg/kg; for Plasma Concentrations of Compound of Formula I: listed as Hydrochloride Salt of Compound of Formula I
Protocol: Compound of Formula I and salts thereof (sulfate, hydrochloride salt, phosphate, maleate), supplied by Shanghai Jingxin Biopharmaceutical Co., Ltd. • Strain: SD rats; Gender: male; Body weight: about 250 grams; Source: shanghai Jiesijie Experimental Animal Co., Ltd Route: single intragastric administration; Capacity: measured in 10 mL/kg body weight Preparation: weighing appropriate amount of the free base or salt of the compound of Formula I, adding a small amount of 0.5% CMC-Na to grind, adding 0.5% CMC-Na to the volume. The concentration is measured as the base. 20 SD rats were divided into 5 groups with 4 rats in each group, fasted for 12 h and drank freely before administration. […] The blood was anticoagulated with 1% heparin, the plasma was separated by 8000 rpm centrifugation for 4 min and stored at -40° C. for testing. LC-MS/MS Method. Pharmacokinetic parameters after administration in rats were calculated using a non-compartmental model of DAS 2.0 software.

[6] = DVS, listed as Example 2 hydrochloride salt
[7] = male, SD, rat, plasma, po, 1 mg/kg, Mean ± SD, non-compartmental model
[8] = male, SD, rat, plasma, po, 1 mg/kg, Mean ± SD, non-compartmental model, read-out: Tmax
[9] = DVS, listed as Example 4 phosphate
[10] = Mean ± SD, non-compartmental model, listed as Phosphate

CN(C)C(=O)N[C@H]1CC[C@H](CCN2CCN(c3cccc4ccsc34)CC2)CC1 [Comparative Example 12, N′-[trans-4-[2-[7-(benzo[b]thiophene)-7-piperazinyl]ethyl]cyclohexyl]-N,N-dimethylurea]
stability of the crystal form ([1]; compared with maleate Form A, after being heated): lower than that of maleate Form A
crystal form after heating ([1]; heated to 150° C. and cooled to room temperature, XRPD): turned to maleate Form A

CN(C)C(=O)N[C@H]1CC[C@H](CCN2CCN(c3cccc4ccsc34)CC2)CC1 [Example 2, N′-[trans-4-[2-[7-(benzo[b]thiophene)-7-piperazinyl]ethyl]cyclohexyl]-N,N-dimethylurea]
solubility in water ([2]; listed as hydrochloride salt Form B): greater than 4.6 mg/ml
Hygroscopicity [3, 6]: Almost no
Vapor sorption [3, 6]: 0.21%
hygroscopicity (summary in words) ([3]; DVS): almost no hygroscopicity or slight hygroscopicity
AUC [4, 7]: 96.9 ± 29.3 ng·h/mL
AUC(0-inf) [4, 7]: 99.1 ± 28.9 ng·h/mL
Cmax [4, 7]: 36.5 ± 13.1 ng/mL
half-life [4, 7]: 4.72 ± 2.66 h
MRT inf [4, 7]: 4.27 ± 2.2 h
Tmax [4, 8]: 0.625 ± 0.25 h
Plasma Concentrations of Compound of Formula I ([5]; 0.333 h after administration, Mean ± SD): 29.4 ± 16.4 ng/mL
Plasma Concentrations of Compound of Formula I ([5]; 0.333 h after administration, rat 1♂): 37.6 ng/mL
Plasma Concentrations of Compound of Formula I ([5]; 0.333 h after administration, rat 2♂): 25.9 ng/mL
Plasma Concentrations of Compound of Formula I ([5]; 0.333 h after administration, rat 3♂): 8.18 ng/mL
Plasma Concentrations of Compound of Formula I ([5]; 0.333 h after administration, rat 4♂): 45.9 ng/mL
Plasma Concentrations of Compound of Formula I ([5]; 0.5 h after administration, Mean ± SD): 35.1 ± 15.6 ng/mL
Plasma Concentrations of Compound of Formula I ([5]; 0.5 h after administration, rat 1♂): 48.3 ng/mL
Plasma Concentrations of Compound of Formula I ([5]; 0.5 h after administration, rat 2♂): 30.6 ng/mL
Plasma Concentrations of Compound of Formula I ([5]; 0.5 h after administration, rat 3♂): 15.0 ng/mL
Plasma Concentrations of Compound of Formula I ([5]; 0.5 h after administration, rat 4♂): 46.4 ng/mL
Plasma Concentrations of Compound of Formula I ([5]; 1 h after administration, rat 1♂): 32.4 ng/mL
Plasma Concentrations of Compound of Formula I ([5]; 1 h after administration, rat 2♂): 25.3 ng/mL
Plasma Concentrations of Compound of Formula I ([5]; 1 h after administration, rat 3♂): 20.8 ng/mL
Plasma Concentrations of Compound of Formula I ([5]; 1 h after administration, rat 4♂): 42.7 ng/mL

CN(C)C(=O)N[C@H]1CC[C@H](CCN2CCN(c3cccc4ccsc34)CC2)CC1 [Example 4, N′-[trans-4-[2-[7-(benzo[b]thiophene)-7-piperazinyl]ethyl]cyclohexyl]-N,N-dimethylurea]
solubility in water ([2]; listed as phosphate Form A): greater than 7.6 mg/ml
Hygroscopicity [3, 9]: Slight
Vapor sorption [3, 9]: 0.61%
MRT0-∞ [4, 10]: 3.06 ± 0.434 h
Tmax [4, 10]: 0.833 ± 0.333 h
t1/2 [4, 10]: 3.25 ± 1.23 h

CN(C)C(=O)N[C@H]1CC[C@H](CCN2CCN(c3cccc4ccsc34)CC2)CC1.O=C(O)/C=C\C(=O)O [Example 5, N′-[trans-4-[2-[7-(benzo[b]thiophene)-7-piperazinyl]ethyl]cyclohexyl]-N,N-dimethylurea]
solubility [2]: > 2600 µg/mL
hygroscopicity compared with other salts ([3]; DVS): less hygroscopic than other salts
Hygroscopicity ([3]; DVS): Almost no
Vapor sorption ([3]; DVS): 0.12%
hygroscopicity (summary in words) ([3]; DVS): almost no hygroscopicity or slight hygroscopicity
The crystal form changes after DVS testing or not ([3]; after DVS testing): No
bioavailability (in words) ([4]; compared with other salts): highly bioavailable
half-life (in words) ([4]; compared with other salts): relatively long half-life
AUC [4, 7]: 124 ± 5.79 ng·h/mL
AUC(0-inf) [4, 7]: 125 ± 7 ng·h/mL
Cmax [4, 7]: 45.4 ± 2.81 ng/mL
half-life [4, 7]: 4.67 ± 2.17 h
MRT inf [4, 7]: 3.07 ± 0.531 h
Tmax [4, 8]: 0.75 ± 0.289 h
individual difference of plasma concentration ([5]; compared with other salts): smallest
